In ChEMBL document CHEMBL6153118, “Structure Optimization of Natural Product Catalpol to Obtain Novel and Potent Analogs against Heart Failure” (J Med Chem, 2025):
The source made the active and inactive calls. The calls are words filed in the database; no cut-off is given here.

Assays:
H9c2 [1] = assay: Cytoprotective activity against OGD-induced myocardial ischemic injury in rat H9c2 cells assessed as cell viability at 5 uM preincubated for 12 hrs followed by exposure to OGD condition for 3 hrs by CCK8 assay (reference value: 49.23 to 50.05 %); format: functional; details: time 15 hrs, read-out: Activity
H9c2 [2] = assay: Cytoprotective activity against OGD-induced myocardial ischemic injury in rat H9c2 cells assessed as cell viability at 50 uM preincubated for 12 hrs followed by exposure to OGD condition for 3 hrs by CCK8 assay (reference value: 49.23 to 50.05 %); format: functional; details: time 15 hrs, read-out: Activity
Mus musculus [3] = assay: Inhibition of cardiomyocyte hypertrophy in ISO-induced heart failure C57BL/6J mouse at 5 to 20 mg/kg/day, po for 14 days; format: functional, organism-based; details: dose 5-20 mg/kg/day, time 14.0 day
Mus musculus [4] = assay: Cardioprotective activity in ISO-induced heart failure C57BL/6J mouse assessed as ejection fraction in heart at 5 mg/kg/day, po for 14 days by echocardiography (reference value: 49.55 +/- 2.41 %); format: functional; details: time 14 day
Cardiac muscle cell [5] = assay: Cytoprotective activity against OGD-induced myocardial ischemic injury in neonatal rat primary cardiomyocytes assessed as decrease in cellular damage at 1 uM preincubated for 12 hrs followed by exposure to OGD condition for 3 hrs; format: functional, cell-based; details: time 15.0 hrs
H9c2 [6] = assay: Cytoprotective activity against OGD-induced myocardial ischemic injury in rat H9c2 cells assessed as decrease in cell death at 5 to 50 uM preincubated for 12 hrs followed by exposure to OGD condition for 3 hrs by crystal violet staining based analysis; format: functional; details: dose 5-50 µM, time 15.0 hrs
Mus musculus [7] = assay: Cardioprotective activity in ISO-induced heart failure C57BL/6J mouse assessed as ejection fraction in heart at 20 mg/kg/day, po for 14 days by echocardiography (reference value: 49.55 +/- 2.41 %); format: functional; details: time 14 day
Mus musculus [8] = assay: Improvement in motor ability in ISO-induced heart failure C57BL/6J mouse assessed as increase in time of remote motion with rotarod at 5 to 20 mg/kg/day, po for 14 days; format: functional, organism-based; details: dose 5-20 mg/kg/day, time 14.0 day
H9c2 [9] = assay: Cytoprotective activity against OGD-induced myocardial ischemic injury in rat H9c2 cells assessed as decrease in ROS level at 5 to 50 uM preincubated for 12 hrs followed by exposure to OGD condition for 3 hrs by DCFH-DA probe based analysis; format: functional, cell-based; details: dose 5-50 µM, time 15.0 hrs
Mus musculus [10] = assay: Cardioprotective activity in ISO-induced heart failure C57BL/6J mouse assessed as fractional shortening in heart at 5 mg/kg/day, po for 14 days by echocardiography (reference value: 24.49 +/- 1.49 %); format: functional; details: time 14 day
Mus musculus [11] = assay: Cardioprotective activity in ISO-induced heart failure C57BL/6J mouse assessed as fractional shortening in heart at 20 mg/kg/day, po for 14 days by echocardiography (reference value: 24.49 +/- 1.49 %); format: functional; details: time 14 day
H9c2 [12] = assay: Cytoprotective activity against OGD-induced myocardial ischemic injury in rat H9c2 cells assessed as decrease in LDH level at 5 to 50 uM preincubated for 12 hrs followed by exposure to OGD condition for 3 hrs by UV absorption analysis; format: functional, cell-based; details: dose 5-50 µM, time 15.0 hrs
Mus musculus [13] = assay: Improvement in motor ability in ISO-induced heart failure C57BL/6J mouse assessed as increase in grip strength at 5 to 20 mg/kg/day, po for 14 days; format: functional, organism-based; details: dose 5-20 mg/kg/day, time 14.0 day
Mus musculus [14] = assay: Inhibition of cardiac fibrosis in ISO-induced heart failure C57BL/6J mouse at 5 to 20 mg/kg/day, po for 14 days; format: functional, organism-based; details: dose 5-20 mg/kg/day, time 14.0 day
H9c2 [15] = assay: Cytoprotective activity against OGD-induced myocardial ischemic injury in rat H9c2 cells assessed as cell viability at 100 uM preincubated for 12 hrs followed by exposure to OGD condition for 3 hrs by CCK8 assay (reference value: 49.23 to 50.05 %); format: functional; details: time 15 hrs, read-out: Activity
Cardiac muscle cell [16] = assay: Cytoprotective activity against OGD-induced myocardial ischemic injury in neonatal rat primary cardiomyocytes assessed as decrease in cellular damage preincubated for 12 hrs followed by exposure to OGD condition for 3 hrs; format: functional, cell-based; details: time 15.0 hrs
Mus musculus [17] = assay: Inhibition of cardiomyocyte hypertrophy in ISO-induced heart failure C57BL/6J mouse at 20 mg/kg/day, po for 14 days; format: functional, organism-based; details: time 14.0 day
Mus musculus [18] = assay: Cardioprotective activity in ISO-induced heart failure C57BL/6J mouse assessed as […] in ejection fraction in heart at 20 mg/kg/day, po for 14 days by echocardiography; format: functional, organism-based; details: time 14.0 day
Mus musculus [19] = assay: Cardioprotective activity in ISO-induced heart failure C57BL/6J mouse assessed as […] in fractional shortening in heart at 20 mg/kg/day, po for 14 days by echocardiography; format: functional, organism-based; details: time 14.0 day
[20] = Metabolic stability in mouse liver microsomes assessed as half life measured for 5 to 60 mins in presence of NADPH by LC-MS/MS analysis; format: ADME, Microsome; details: time 5-60 min
[21] = Metabolic stability in human liver microsomes assessed as intrinsic clearance measured for 5 to 60 mins in presence of NADPH by LC-MS/MS analysis; format: ADME, Microsome; details: time 5-60 min, read-out: CLH
[22] = Metabolic stability in mouse liver microsomes assessed as intrinsic clearance measured for 5 to 60 mins in presence of NADPH by LC-MS/MS analysis; format: ADME, Microsome; details: time 5-60 min, read-out: CLH

Row | Structure (SMILES) | viability at 5 µM (H9c2 [1]) | viability at 50 µM (H9c2 [2]) | further results
1 | O=C(NC[C@]12O[C@H]1[C@@H](O)[C@@H]1C=CO[C@@H](O[C@@H]3O[C@H](CO)[C@@H](O)[C@H](O)[C@H]3O)[C@@H]12)c1cncnc1 | 58% | 57.5% | 
2 | OC[C@H]1O[C@@H](O[C@@H]2OC=C[C@H]3[C@H](O)[C@@H]4O[C@]4(COc4ccc(-c5ccccc5)cc4)[C@@H]23)[C@H](O)[C@@H](O)[C@@H]1O | 60% | 53.2% | 
3 | OC[C@H]1O[C@@H](O[C@@H]2OC=C[C@H]3[C@H](O)[C@@H]4O[C@]4(COc4cc(C(F)(F)F)cc(C(F)(F)F)c4)[C@@H]23)[C@H](O)[C@@H](O)[C@@H]1O | 56.1% | 50.1% | 
4 | COc1ccc(CC(=O)NC[C@]23O[C@H]2[C@@H](O)[C@@H]2C=CO[C@@H](O[C@@H]4O[C@H](CO)[C@@H](O)[C@H](O)[C@H]4O)[C@@H]23)cc1OC | 60.9% | 59.4% | 
5 | OC[C@H]1O[C@@H](O[C@@H]2OC=C[C@H]3[C@H](O)[C@@H]4O[C@]4(COc4ccccc4)[C@@H]23)[C@H](O)[C@@H](O)[C@@H]1O | 59.1% | 60.5% | 
6 | O=C(NC[C@]12O[C@H]1[C@@H](O)[C@@H]1C=CO[C@@H](O[C@@H]3O[C@H](CO)[C@@H](O)[C@H](O)[C@H]3O)[C@@H]12)c1ccncc1 | 54.2% | 57.5% | 
7 | OC[C@H]1O[C@@H](O[C@@H]2OC=C[C@H]3[C@H](O)[C@@H]4O[C@]4(COc4cccc5ccccc45)[C@@H]23)[C@H](O)[C@@H](O)[C@@H]1O | 55.5% | 58.8% | 
8 | OC[C@H]1O[C@@H](O[C@@H]2OC=C[C@H]3[C@H](O)[C@@H]4O[C@]4(COc4cccc5c4CCCC5)[C@@H]23)[C@H](O)[C@@H](O)[C@@H]1O | 54.4% | 55.5% | 
9 | OC[C@H]1O[C@@H](O[C@@H]2OC=C[C@H]3[C@H](O)[C@@H]4O[C@]4(COc4ccc(F)cc4)[C@@H]23)[C@H](O)[C@@H](O)[C@@H]1O | 61.7% | 64.6% | 
10 | CC(C)(C)c1ccc(C(=O)NC[C@]23O[C@H]2[C@@H](O)[C@@H]2C=CO[C@@H](O[C@@H]4O[C@H](CO)[C@@H](O)[C@H](O)[C@H]4O)[C@@H]23)cc1 | 60.7% | 70.9% | inhibition (Mus musculus [3]): inactive; Activity (Mus musculus [4]): 55.41%; Activity (Cardiac muscle cell [5]): Active; Activity (H9c2 [6]): Active; Exhibited Superior Protective Efficacy Than Catal-Pol; Activity (Mus musculus [7]): 53.73%; Activity (Mus musculus [8]): Active; Activity (H9c2 [9]): Active; Activity (Mus musculus [10]): 28.23%; Activity (Mus musculus [11]): 27.5%; Activity (H9c2 [12]): Active; Activity (Mus musculus [13]): Active; inhibition (Mus musculus [14]): Active
11 | COc1ccc(OC[C@]23O[C@H]2[C@@H](O)[C@@H]2C=CO[C@@H](O[C@@H]4O[C@H](CO)[C@@H](O)[C@H](O)[C@H]4O)[C@@H]23)cc1 | 62.5% | 57.5% | 
12 | OC[C@H]1O[C@@H](O[C@@H]2OC=C[C@H]3[C@H](O)[C@@H]4O[C@]4(COc4ccc(C5CCCCC5)cc4)[C@@H]23)[C@H](O)[C@@H](O)[C@@H]1O | 60.9% | 56.6% | 
13 | OC[C@H]1O[C@@H](O[C@@H]2OC=C[C@H]3[C@H](O)[C@@H]4O[C@]4(COc4ccc5ccoc5c4)[C@@H]23)[C@H](O)[C@@H](O)[C@@H]1O | 56.7% | 57% | 
14 | O=C(NC[C@]12O[C@H]1[C@@H](O)[C@@H]1C=CO[C@@H](O[C@@H]3O[C@H](CO)[C@@H](O)[C@H](O)[C@H]3O)[C@@H]12)c1cccnc1 | 58.2% | 59.6% | 
15 | O=C(NC[C@]12O[C@H]1[C@@H](O)[C@@H]1C=CO[C@@H](O[C@@H]3O[C@H](CO)[C@@H](O)[C@H](O)[C@H]3O)[C@@H]12)c1ccc2occc2c1 | 59.1% | 58% | 
16 | OC[C@H]1O[C@@H](O[C@@H]2OC=C[C@H]3[C@H](O)[C@@H]4O[C@]4(COc4ccc5c(c4)OCO5)[C@@H]23)[C@H](O)[C@@H](O)[C@@H]1O | 59.6% | 60.7% | 
17 | OC[C@H]1O[C@@H](O[C@@H]2OC=C[C@H]3[C@H](O)[C@@H]4O[C@]4(COc4ccc(C5CCCC5)cc4)[C@@H]23)[C@H](O)[C@@H](O)[C@@H]1O | 64.5% | 60.8% | 
18 | O=C(NC[C@]12O[C@H]1[C@@H](O)[C@@H]1C=CO[C@@H](O[C@@H]3O[C@H](CO)[C@@H](O)[C@H](O)[C@H]3O)[C@@H]12)c1ccccc1 | 63.6% | 70% | Activity (Cardiac muscle cell [5]): Active; Activity (H9c2 [6]): Active; Exhibited Superior Protective Efficacy Than Catal-Pol
19 | COc1cc(OC[C@]23O[C@H]2[C@@H](O)[C@@H]2C=CO[C@@H](O[C@@H]4O[C@H](CO)[C@@H](O)[C@H](O)[C@H]4O)[C@@H]23)cc(OC)c1OC | 63.9% | 55.1% | 
20 | COc1ccc(C(=O)NC[C@]23O[C@H]2[C@@H](O)[C@@H]2C=CO[C@@H](O[C@@H]4O[C@H](CO)[C@@H](O)[C@H](O)[C@H]4O)[C@@H]23)cc1OC | 62.1% | 57.8% | 
21 | O=C(NCCO[N+](=O)[O-])c1cccnc1 [NICORANDIL] |  |  | viability at 100 µM (H9c2 [15]): 58.6%
22 | COc1ccc(/C=C/C(=O)NC[C@]23O[C@H]2[C@@H](O)[C@@H]2C=CO[C@@H](O[C@@H]4O[C@H](CO)[C@@H](O)[C@H](O)[C@H]4O)[C@@H]23)cc1OC | 56.6% | 56.7% | 
23 | O=C(/C=C/c1ccccc1)NC[C@]12O[C@H]1[C@@H](O)[C@@H]1C=CO[C@@H](O[C@@H]3O[C@H](CO)[C@@H](O)[C@H](O)[C@H]3O)[C@@H]12 | 57.9% | 61.5% | 
24 | OC[C@H]1O[C@@H](O[C@@H]2OC=C[C@H]3[C@H](O)[C@@H]4O[C@]4(CO)[C@@H]23)[C@H](O)[C@@H](O)[C@@H]1O [CATALPOL] | 50.6% | 50.7% | Activity (Cardiac muscle cell [16]): Active; inhibition (Mus musculus [17]): Active; Activity (Mus musculus [18]): Active; Activity (H9c2 [9]): Active; Activity (Mus musculus [19]): Active; Activity (H9c2 [12]): Active
25 | O=C(O)Cc1ccccc1Nc1c(Cl)cccc1Cl [DICLOFENAC] |  |  | half-life [20]: 1.1 h; CLint scaled [21]: 202 mL/min/kg; CLint scaled [22]: 82.9 mL/min/kg
26 | O=C(NC[C@]12O[C@H]1[C@@H](O)[C@@H]1C=CO[C@@H](O[C@@H]3O[C@H](CO)[C@@H](O)[C@H](O)[C@H]3O)[C@@H]12)C1CCCCC1 | 60% | 61.3% | 
27 | O=C(NC[C@]12O[C@H]1[C@@H](O)[C@@H]1C=CO[C@@H](O[C@@H]3O[C@H](CO)[C@@H](O)[C@H](O)[C@H]3O)[C@@H]12)c1ccco1 | 58.8% | 55.6% | 
28 | O=C(NC[C@]12O[C@H]1[C@@H](O)[C@@H]1C=CO[C@@H](O[C@@H]3O[C@H](CO)[C@@H](O)[C@H](O)[C@H]3O)[C@@H]12)c1cccs1 | 54.1% | 60.4% | 
